In US20100160293A1, “Solid Ophthalmic Drug for External Use” (priority 2005, published 2010):
Structures can show the parent of a compound that is named as a salt.

Test: SKIN-CAD simulation of ketotifen fumarate concentration profile in conjunctiva
Parameters: species or system rabbit
Settings: simulation parameter
Description: The above data were fed into SKIN-CAD (Biocom Systems, Inc., Fukuoka, Japan), a software for analysis of skin permeation of drugs, together with the parameters for hairless mouse skin permeation and parameters for rabbit tear fluid kinetics, to simulate a ketotifen fumarate concentration profile in rabbit's conjunctiva.
According to references, the rate of uptake of absorbed drugs by the subvascular tissues in normal capillary vessels is around 3-5% (K. Tojo, Mathematical models of transdermal and topical drug delivery, 2nd edition, Biocom Systems, Fkuoka, Japan, 2005), and the above transfer rate of 3% (i.e., the rate of uptake into the tear fluid) almost agrees with this. Based on this rate of uptake (3%), the profile of drug concentration in the conjunctiva was simulated again, this time on the assumption that the solid pharmaceutical preparation was rubbed on the skin only once, not ten times, by replacing the parameter for drug thickness in SKIN-CAD with 1/10 of the value in the above test, i.e., with 0.005 cm.
As to the concentration of the drug in the conjunctiva, the results of the above test where the solid pharmaceutical preparation was applied (Table 10, 10 times application) and a graph produced by SKIN-CAD in agreement with the results, the data after the above topical instillation (Table 13), and the result of the simulation by SKIN-CAD where the solid pharmaceutical preparation was rubbed only once (1 time application) are shown together in FIG. 9.

[1] = rabbit tear fluid pharmacokinetics

CN1CCC(=C2c3ccccc3CC(=O)c3sccc32)CC1 [ketotifen fumarate]
Absorption Rate Constant into Blood: 0.04 s⁻¹
Device/Skin Partition Coefficient (device design): 5.80 × 10^−2
Diffusion Coefficient in Device (device design): 1.97 × 10^−9 cm^2/sec
Diffusion Coefficient in Stratum Corneum (hairless mouse skin permeation): 1.12 × 10^−11 cm^2/sec
Diffusion Coefficient in Viable Skin (hairless mouse skin permeation): 3.75 × 10^−7 cm^2/sec
Stratum Corneum/Viable Skin Partition Coefficient (hairless mouse skin permeation): 2.47 × 10^2
Elimination Rate Constant, K10 [1]: 0.00385 s⁻¹
Volume of Distribution, V1 [1]: 0.008 mL
